Measured values published in patent US20070185161A1, “Bicyclic substituted indole-derivative steroid hormone nuclear receptor modulators” (priority 2004, published 2007).

molecular target: T1, human MR (Homo sapiens, UniProt P08235); test: Mineralocorticoid Receptor Binding Assay (Method 1); conditions: [3H]-aldosterone, racemic mixture unless otherwise indicated
T1 construct: The full length human MR gene is cloned from a human kidney or human brain cDNA library; made in house; host or cells: SF9 insect cells (baculovirus)
T1 sequence (P08235 1-984): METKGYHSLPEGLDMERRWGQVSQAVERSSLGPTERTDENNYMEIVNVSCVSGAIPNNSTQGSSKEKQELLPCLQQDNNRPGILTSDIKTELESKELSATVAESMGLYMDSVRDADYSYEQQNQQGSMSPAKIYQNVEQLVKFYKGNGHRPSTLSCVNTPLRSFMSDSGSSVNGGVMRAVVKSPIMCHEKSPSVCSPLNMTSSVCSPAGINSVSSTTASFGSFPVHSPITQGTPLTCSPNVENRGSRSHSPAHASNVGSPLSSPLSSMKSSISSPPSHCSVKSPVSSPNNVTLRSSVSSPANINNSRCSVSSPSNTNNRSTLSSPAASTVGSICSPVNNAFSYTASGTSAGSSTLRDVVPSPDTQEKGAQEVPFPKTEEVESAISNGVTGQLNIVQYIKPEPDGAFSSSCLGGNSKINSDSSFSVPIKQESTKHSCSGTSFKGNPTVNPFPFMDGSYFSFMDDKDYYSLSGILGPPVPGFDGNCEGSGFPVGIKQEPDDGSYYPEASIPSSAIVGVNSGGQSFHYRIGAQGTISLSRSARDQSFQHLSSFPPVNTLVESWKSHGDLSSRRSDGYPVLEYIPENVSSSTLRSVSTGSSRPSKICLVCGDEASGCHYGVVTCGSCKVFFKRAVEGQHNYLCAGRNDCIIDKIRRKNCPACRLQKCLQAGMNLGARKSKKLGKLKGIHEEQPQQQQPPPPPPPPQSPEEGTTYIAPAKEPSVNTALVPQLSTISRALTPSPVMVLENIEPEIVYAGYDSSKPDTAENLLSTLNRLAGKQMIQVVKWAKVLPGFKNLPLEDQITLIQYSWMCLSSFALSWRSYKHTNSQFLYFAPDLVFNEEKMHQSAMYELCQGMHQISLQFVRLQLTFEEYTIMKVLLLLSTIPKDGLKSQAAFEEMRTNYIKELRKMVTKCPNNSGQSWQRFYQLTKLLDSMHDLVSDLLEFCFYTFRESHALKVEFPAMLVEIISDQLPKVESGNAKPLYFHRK
Description: The full length human MR gene is cloned from a human kidney or human brain cDNA library. Briefly, using synthetic oligonucleotide primers (Eli Lilly and Company, Indianapolis) directed to nucleotides 20-54 and 3700-3666 of the human MR, polymerase chain reaction (PCR) is performed under standard conditions using a human cDNA library. The PCR reaction is performed in a final volume of 50 μl containing about 1 μl of a 50× stock solution of polymerase; about 1 μl of a 50× stock solution of dNTP; about 5 μl of an appropriate PCR buffer; about 1 μl of each primer; about 5 μl of a H. kidney or H. brain cDNA library; and about 36 μl of water. The reaction is allowed to denature for about 30 seconds at 95 degrees Celsius, anneal for about 30 seconds at 55 degrees Celsius, and extend for about 5 minutes at 72 degrees Celsius, the sequence being repeated for a total of about 35 cycles. The desired PCR product (3.68 Kb) is confirmed by gel electrophoresis and subsequently cut from the gel and stored at about −20 degrees Celsius until extraction. To extract the cDNA product from the agarose gel, the QIAEX II Gel Extraction protocol (QIAGEN, Inc.) is employed according to the manufacturer's instructions. Following extraction, the MR cDNA is cloned into an appropriate cloning vector (Zero Blunt TOPO PCR Cloning Kit (Invitrogen, Inc.) and a pAcHLT-baculovirus transfer vector (B.D./Pharminogen), then expressed in SF9 insect cells, essentially according to manufacturer's instructions. Sf9 cells are grown at a scale where gram quantity cell pellets are obtained for subsequent use in the MR binding assay. Harvested cell pellets are lysed by repeated freeze-thaw cycles (about 4) in a suitable lysis buffer then centrifuged at about 1×10^3 G (with the supernatant being saved for future assays).
MR binding assays are performed in a final total volume of about 250 μl containing about 20-25 μg of protein and 0.5 nM of [^3H]-aldosterone plus varying concentrations of test compound or vehicle. The assay binding buffer consists of 30 mM sodium molybdate, 30 mM of TRIS-HCl, 5 mM sodium phosphate, 5 mM sodium pyrophosphate, and about 10% glycerol, pH=7.5.
Briefly, assays are prepared at RT in 96-well Falcon 3072 plates, each well containing 210 μl of binding buffer, 10 μl of [^3H]-aldosterone, 10 μl of test compound/vehicle, and 20 μl of the resuspended receptor protein extract. Incubations are carried out at 4 degrees Celsius with shaking for about 16 hours. 200 μl aliquots of each incubation are filtered onto Millipore HA 0.45 micron 96-well filter plates, pre-moistened with cold 30 mM TRIS-HCl. The filter plates are suctioned dry with vacuum and immediately washed 3× with cold 30 mM TRIS-HCl. The plates are then punched out and the amount of receptor-ligand complex is determined by liquid scintillation counting using 4 ml of Ready Protein Plus™ liquid scintillation cocktail.
IC50 values (defined as the concentration of test compound required to decrease [^3H]-aldosterone binding by 50%) are then determined. Ki values for each respective test compound can then be calculated by application of the Cheng-Prusoff equation as described in Cheng et al., Relationship Between The Inhibition Constant (Ki) and The Concentration of Inhibitor Which Causes 50% Inhibition (IC50) of an Enzymatic Reaction, Biochem. Pharmacol., 22: 3099-31088; (1973).

Ki	Compound
≤ 500 nM	CCC1(c2c[nH]c3c(NS(C)(=O)=O)cccc23)CCCc2cc(F)cc(F)c21 (single isomer, unassigned) [Example 31B, N-[3-(1-Ethyl-6,8-difluoro-1,2,3,4-tetrahydro-naphthalen-1-yl)-1H-indol-7-yl]-methanesulfonamide]
≤ 500 nM	CC1(c2c[nH]c3c(NS(C)(=O)=O)cccc23)CCCc2cc(F)cc(F)c21 (single isomer, unassigned) [Example 30A, N-[3-(6,8-Difluoro-1-methyl-1,2,3,4-tetrahydro-naphthalen-1-yl)-1H-indol-7-yl]-methanesulfonamide]
≤ 500 nM	CCC1(c2c[nH]c3c(OC)cccc23)CCc2cc(F)ccc21 (centres unmarked) [Example 12, 3-(1-Ethyl-5-fluoro-indan-1-yl)-7-methoxy-1H-indole]
≤ 500 nM	CCC1(c2c[nH]c3ccccc23)CCc2cc(F)ccc21 (centres unmarked) [Example 6, 3-(1-Ethyl-5-fluoro-indan-1-yl)-1H-indole]
≤ 1000 nM	CCc1cccc2c(C3(CC)CCc4cc(F)ccc43)c[nH]c12 (centres unmarked) [Example 10, 7-Ethyl-3-(1-ethyl-5-fluoro-indan-1-yl)-1H-indole]
≤ 500 nM	CCC1(c2c[nH]c3c(F)cccc23)CCc2cc(F)ccc21 (centres unmarked) [Example 7, 3-(1-Ethyl-5-fluoro-indan-1-yl)-7-fluoro-1H-indole]
≤ 500 nM	CCC1(c2c[nH]c3c(NS(C)(=O)=O)cccc23)CCCc2cc(F)cc(F)c21 (single isomer, unassigned) [Example 31A, N-[3-(1-Ethyl-6,8-difluoro-1,2,3,4-tetrahydro-naphthalen-1-yl)-1H-indol-7-yl]-methanesulfonamide]
≤ 500 nM	CC1(c2c[nH]c3c(NS(C)(=O)=O)cccc23)CCCc2cc(F)cc(F)c21 (single isomer, unassigned) [Example 30B, N-[3-(6,8-Difluoro-1-methyl-1,2,3,4-tetrahydro-naphthalen-1-yl)-1H-indol-7-yl]-methanesulfonamide]
≤ 500 nM	CC1(c2c[nH]c3c(NS(C)(=O)=O)cccc23)CCCc2cc(F)cc(F)c21 (racemic) [Example 30, N-[3-(6,8-Difluoro-1-methyl-1,2,3,4-tetrahydro-naphthalen-1-yl)-1H-indol-7-yl]-methanesulfonamide]
≤ 500 nM	CCC1(c2c[nH]c3c(Cl)cccc23)CCc2cc(F)ccc21 (centres unmarked) [Example 9, 7-Chloro-3-(1-ethyl-5-fluoro-indan-1-yl)-1H-indole]
≤ 500 nM	CCC1(c2c[nH]c3c(Br)cccc23)CCc2cc(F)ccc21 (centres unmarked) [Example 8, 7-Bromo-3-(1-ethyl-5-fluoro-indan-1-yl)-1H-indole]

test system: patients suffering from advanced CHF; test: not given; conditions: in combination with standard CHF therapy; cited from earlier work

Compound	reduced cardiac related mortality	reduced frequency of hospitalization
CC(=O)S[C@@H]1CC2=CC(=O)CC[C@]2(C)[C@H]2CC[C@@]3(C)[C@@H](CC[C@@]34CCC(=O)O4)[C@H]12 [spironolactone]	30%	35%

molecular target: T2, human GR (glucocorticoid receptor) (Homo sapiens, UniProt P04150); test: Alternative Binding Assay Protocol (Method 2), GR; conditions: 3H-dexamethasone, 293-GR lysate, racemic mixture unless otherwise indicated
T2 construct: expressed in transfected cells; host or cells: 293 cells
T2 sequence (P04150 1-777): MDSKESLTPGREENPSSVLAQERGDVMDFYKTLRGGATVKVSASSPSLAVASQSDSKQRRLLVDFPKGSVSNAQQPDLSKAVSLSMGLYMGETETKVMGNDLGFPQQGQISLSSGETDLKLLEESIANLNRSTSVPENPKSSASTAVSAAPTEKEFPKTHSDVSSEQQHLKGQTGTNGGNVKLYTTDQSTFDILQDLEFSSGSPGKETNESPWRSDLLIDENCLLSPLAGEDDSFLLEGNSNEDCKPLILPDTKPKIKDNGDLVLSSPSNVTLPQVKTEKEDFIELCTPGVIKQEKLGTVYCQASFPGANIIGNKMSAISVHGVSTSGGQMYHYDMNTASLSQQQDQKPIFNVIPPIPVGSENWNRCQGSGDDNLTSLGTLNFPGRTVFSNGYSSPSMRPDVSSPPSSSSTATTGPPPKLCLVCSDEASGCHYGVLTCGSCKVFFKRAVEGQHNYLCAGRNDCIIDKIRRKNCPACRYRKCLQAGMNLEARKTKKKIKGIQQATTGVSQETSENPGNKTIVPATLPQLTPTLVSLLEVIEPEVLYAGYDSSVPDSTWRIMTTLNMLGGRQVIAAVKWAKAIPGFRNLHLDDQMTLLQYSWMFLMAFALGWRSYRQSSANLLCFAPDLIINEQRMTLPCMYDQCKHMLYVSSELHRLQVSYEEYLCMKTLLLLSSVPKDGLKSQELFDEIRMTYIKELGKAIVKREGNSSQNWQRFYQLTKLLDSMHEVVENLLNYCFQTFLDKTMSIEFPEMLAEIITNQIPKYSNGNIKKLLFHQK
Description: Cell lysates from 293 cells overexpressing human GR (glucocorticoid receptor), AR (androgen receptor), MR (mineralocorticoid receptor) or PR (progesterone receptor) are used for competition binding assays to determine Ki values for test compounds. Briefly, competition binding assays are run in a buffer containing 20 mM Hepes, pH 7.6, 0.2 mM EDTA, 75 mM NaCl, 1.5 mM MgCl2, 20% glycerol, 20 mM sodium molybdate, 0.2 mM DTT, 20 ug/ml aprotinin and 20 ug/ml leupeptin, using either 0.3 nM ^3H-dexamethasone for GR binding, 0.36 nM ^3H-methyltrienolone for AR binding, 0.25 nM ^3H-aldosterone for MR binding, or 0.29 nM ^3H-methyltrienolone for PR binding, and either 20 ug 293-GR lysate, 22 ug 293-AR lysate, 20 ug 293-MR lysate or 40 ug 293-PR lysate per well. Competing compounds are added at various concentraions in half-log increments. Non-specific binding is determined in the presence of 500 nM dexamethasone for GR binding, 500 nM aldosterone for MR binding, or 500 nM methyltrienolone for AR and PR binding,. The binding reaction (140 μl) is incubated for overnight at […], then 70 μl of cold charcoal-dextran buffer (containing per 50 ml of assay buffer, 0.75 g of charcoal and 0.25 g of dextran) is added to each reaction. Plates are mixed 8 minutes on an orbital shaker at 4° C. Plates are then centrifuged at 3,000 rpm at 4° C. for 10 minutes. An aliquot of 120 μl of the mix is transferred to another 96-well plate and 175 μl of Wallac Optiphase “Hisafe 3” scintillation fluid is added to each well. Plates are sealed and shaken vigorously on an orbital shaker. After an incubation of 2 hrs, plates are read in a Wallac Microbeta counter. The data is used to calculate an IC50 and % Inhibition at 10 μM. The Kd for ^3H-dexamethasone for GR binding, ^3H-methyltrienolone for AR binding, ^3H-aldosterone for MR binding, or ^3H-methyltrienolone for PR binding, is determined by saturation binding. The IC50 values for compounds are converted to Ki using Cheng-Prusoff equation and the Kd determined by saturation binding assay.

Ki	Compound
≤ 10000 nM	CN(C)CCCC1(c2c[nH]c3c(NS(C)(=O)=O)cccc23)CCc2cc(F)ccc21 (centres unmarked) [Example 43, N-{3-[1-(3-Dimethylamino-propyl)-5-fluoro-indan-1-yl]-1H-indol-7-yl}-methanesulfonamide]
